Data as given in US20160113904A1, “SKIN CARE PRODUCTS COMPRISING SUBSTITUTED HYDROXYPROLINE WITH UNSATURATED FATTY ACIDS DERIVATIVES” (MEDWELL LABORATORIES LTD., priority 2013, published 2016).
Entries after “also recorded” stand apart in the source; their conditions may differ.

Legend:
Assay type in all cases: in vivo, human
[1] = tested on: volunteers with psoriasis; test: Psoriasis trial: erythema level by Mexameter; details: treated area
Experimental: (§1) Fifteen volunteers aged 29-73 with psoriasis.
(§2) Volunteers were instructed to apply the product only on one side of the body, on the worst affected area at least once a day, for 4 weeks, while the other side was defined as the control area and was not treated.
Erythema level was evaluated by Mexameter, Courage & Khazaka, CK. The probe of the Mexameter was placed on the skin at a constant pressure find measurements of skin hydration were taken. Skin erythema level was recorded at baseline, after 2 weeks and after 4 weeks of treatment.
(§3) A statistical comparison between T0 and the other two time-points (T1 and T2) and between the treated and the Control areas were made by paired sample t-test, while p<0.05 indicated a significant difference

[2] = tested on: volunteers with psoriasis; test: Psoriasis trial: study director's evaluation of lesions; details: for Redness level / Scale level / Thickness of the Skin / Infected area size: treated area
Experimental: (§4) In Examples 1-3 an emulsion type O/W Creams of MWL-001 (2.5% and 5% w/w) was prepared using Emulgade® SE emulsifiers (glyceryl stearate), Ceteareth-20, cetearyl alcohol, cetyl palmitate, cetearyl alcohol-Lanette®, isopropyl myristate, caprilic/capric acid triglycerides (Myritol®318), strearic acid, a Trietanolamine and purified water, according to Ph Eur 6.0.
as §1
The volunteers were instructed to use the cream at least once a day, for 4 weeks.
as §2
Each volunteer was examined at baseline (T0), after two weeks (T1) and after 4 weeks of using the product (T2). The study Director rated the state of the skin according to the parameters of scales severity, thickness of the plaque, redness and the size of the lesions. Erythema level was documented at each time point.
The following parameters were evaluated:
a) Size of lesion b) Thickness of lesion
The parameters mentioned above were evaluated on a scale of 0 to 5 by the study director.
as §3
The results of 15 volunteers at each time point are presented in the Tables below and in the relevant Figures. All parameters were assessed in a scale of 0-5 where 0=none and 5=very extreme

[3] = tested on: volunteers with Atopic dermatitis; test: Atopic dermatitis trial: study director's evaluation of skin condition
Experimental: as §4
(§5) Ten volunteers aged 2-30 years participated in the trial. Four females and six males.
(§6) Volunteers were instructed to apply the product only on one side of the body, on the worst affected area, while the other side was defined as the control area and was not treated. The tested material, a body lotion product, was applied 1-3 times a day for a period of 4 weeks.
Each volunteer was examined at baseline (T0), after one week (T1) and after 2 weeks of using the product (T2). The investigator rated the condition of the skin according to the parameters of the size of the affected area, dryness, scale, redness, edema, lichenification and pruritus. Both the treated and the Control areas were documented with color photographs at T0, T1 and T2.
The following parameters were evaluated: • a. Lesion area • b. Dryness • c. Scales • d. Redness • e. Edema • f. Lichenificalion
The parameters mentioned above were evaluated on a scale of 0 to 5 by the study director. • 0=None • 1=Slight • 2=Moderate • 3=Severe • 4=Extreme • 5=Very Extreme
(§7) A statistical comparison between T0 and the other two time-points (T1 and T2) and between the treated and the Control areas were made according to the Wilcoxon signed-ranks test, while p<0.05 indicated a significant difference
All parameters were assessed in a scale of 0-5 where 0=none and 5=very extreme. The percentage of change was calculated at T1 and T2.

[4] = tested on: volunteers with Atopic dermatitis; test: Atopic dermatitis trial: subjective pruritus intensity; details: for Change in Pruritus level / Pruritus level: treated area; for Pruritus level: scale 0-5
Excerpt: as §5, §6
The volunteers were asked to assess the pruritus intensity on a 0-5 scale at T0, T1 and T2. • 0=None • 1=Slight • 2=Moderate • 3=Severe • 4=Extreme • 5=Very Extreme
as §7

[5] = tested on: healthy female volunteers; test: Anti wrinkle test: side effects; details: facial use for 4 weeks
Excerpt: Volunteers were asked to report side effects, such as dryness, burning sensation, peeling of the skin, redness, etc. immediately to the study director.

[6] = tested on: volunteers with psoriasis; test: Psoriasis trial: subjective pruritus level; details: for Pruritus level: treated area, scale 0-5
Excerpt: as §1, §2
The volunteers were asked to assess the pruritus level on a 0-5 scale at T0, T1 and T2.
as §3

[7] = tested on: healthy female volunteers, facial skin; test: Anti wrinkle test: TEWL by Tewameter; details: face, treated area
Experimental: Ten healthy female volunteers were included and completed the study.
Moisture level of the skin (corneometry) and TEWL (Trans Epidermal Water Loss) were measured at each time point.
A cosmetic anti wrinkle product MW-001 was applied on half of the face for four weeks by each volunteer while the other half served as a control, without any product application during the whole test period.
TEWL (the ability not to harm the skin barrier) was measured with Tewameter TM 300, Courage & Khazaka, CK. TEWL was recorded at T0, T1 and T2. The results of TEWL in each measurement were recorded after stabilization of the curve of the results in real time. Room temperature and humidity were constant.

[8] = any of the sides, whole study period, p>0.05
[9] = treatment area, after 4 weeks, p<0.05
[10] = after 1 and 2 weeks of treatment, only at the treated area
[11] = after 2 weeks of treatment, both sides
[12] = treated area, T0 baseline, scale 0-5
[13] = treated area, T1 after one week, scale 0-5
[14] = treated area, T2 after two weeks, scale 0-5
[15] = treated area, after 1 week of treatment

## CCC=CCC=CCC=CCC=CCC=CCC=CCCC(=O)N1CC(O)CC1C(=O)O (stereo in doubt) [MW-001]
[1]; T0 baseline
  Erythema level: 562.1
[1]; T1 after two weeks
  Erythema level: 517.5
[1]; T2 after four weeks
  Erythema level: 576.7
[2]
  Overall efficacy conclusion: efficient in the treatment of psoriasis
[2]; after 4 weeks of application
  Lesion area size, statistical analysis of decrease: insignificant
[2]; after both 2 weeks (T1) and 4 weeks (T2)
  Scale parameter, treatment side versus control side: Significant differences
[2]; [8]
  Redness parameter, statistical analysis of change: No significant change
[2]; T0 baseline, scale 0-5
  Redness level: 3.3
  Scale level: 4.5
  Thickness of the Skin: 3.0
[2]; T0 baseline, scale 0-5, 15 volunteers
  Infected area size: 4.1
[2]; T1 after two weeks, scale 0-5
  Infected area size: 3.8
  Redness level: 3.5
  Scale level: 4.1
  Thickness of the Skin: 2.6
[2]; T2 after four weeks, scale 0-5
  Infected area size: 3.9
  Redness level: 3.2
  Scale level: 3.8
  Thickness of the Skin: 2.4
[2]; treatment area, after 2 weeks of application
  Lesion area size, statistical analysis of change: significant decrease
[2]; [9]
  Scales parameter, statistical analysis of change: significant improvement
  Thickness parameter, statistical analysis of change: significant improvement
[3]; [10]
  Scale level, statistical analysis of change: decreased significantly
[3]; [11]
  Dryness level, statistical analysis of change: decreased significantly
  Redness level, statistical analysis of change: decreased significantly
[3]; after 2 weeks of treatment, only at the treated area
  Lichenification level, statistical analysis of change: decreased significantly
[3]; atopic dermatitis
  Overall efficacy conclusion: very efficient in the treatment of atopic dermatitis
[3]; [12]
  Dryness level: 4.1
  Lichenification level: 2.8
  Redness level: 3.9
  Scale level: 2.6
[3]; treated area, T0 baseline, scale 0-5, 10 volunteers
  Infected area size: 4.3
[3]; [13]
  Dryness level: 1.8
  Infected area size: 3.2
  Lichenification level: 2.0
  Redness level: 2.4
  Scale level: 1.3
[3]; [14]
  Dryness level: 1.1
  Infected area size: 2.2
  Lichenification level: 1.3
  Redness level: 2.3
  Scale level: 0.9
[3]; [15]
  Dryness level, statistical analysis of change: decreased significantly
  Redness level, statistical analysis of change: decreased significantly
[3]; treated area, after 2 weeks of treatment, p<0.05, Wilcoxon
  Infected area size, statistical analysis of change: diminished significantly
[4]; [10]
  Pruritus level, statistical analysis of change: decreased significantly
[4]; Baseline
  Change in Pruritus level: 100%
[4]; T0 baseline
  Pruritus level: 3.4
[4]; T1 after one week
  Pruritus level: 1.4
[4]; T2 after two weeks
  Pruritus level: 0.9
[4]; Week 1, relative to baseline
  Change in Pruritus level: 41%
[4]; Week 2, relative to baseline
  Change in Pruritus level: 26%
[5]
  Side effects / safety: None of the volunteers reported of any side effects; also recorded: safe for use
[6]; [8]
  Pruritus level, statistical analysis of change: No significant change
[6]; T0 baseline
  Pruritus level: 2.1
[6]; T1 after two weeks
  Pruritus level: 1.6
[6]; T2 after four weeks
  Pruritus level: 1.3
[7]; T0 baseline
  Average TEWL level: 7.8 g/hm^2
[7]; T1 after 2 weeks of use
  Average TEWL level: 9.4 g/hm^2
[7]; T2 after 4 weeks of use
  Average TEWL level: 7.6 g/hm^2
